# Measured values from US6355799B1, “Substituted benzene compounds, process for their preparation, and herbicidal and defoliant compositions containing them” (ISK Americas Incorporated, priority 1997, dated 2002).
# Key:
# Format in all cases: in vivo
# [1] = system: redroot pigweed (Amaranthus retroflexus, AMARE); test: Pre-emerge test, greenhouse herbicide activity screening; details: pre-emerge, 14 days after application, rating scale 0-100
# Summary of the method: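 Sandy loam pots; pre-emerge: sown 1 d pre-spray, surface-watered after, then bottom-watered. Post-emerge: sown 8–21 d before, 2–3 leaf stage, + 0.25% v/v NIS, bottom-watered. Acetone, 187 l/ha track spray, 15–1000 g ai/ha. 0–100 injury score, day 14.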
# [2] = system: barnyardgrass (Echinochloa crus-galli, ECHCG); test: as above; details: pre-emerge, 14 days after application, rating scale 0-100
# Summary of the method: (§1)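 Applied at 15–1000 g ai/ha from acetone in 187 l/ha spray volume. Post-emergence applications included 0.25% v/v non-ionic surfactant and reached plants sown 8–21 days before. Pre-emergence applications were incorporated by surface watering. Efficacy or crop damage was rated on a 0–100 scale after 14 days.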
# [3] = system: common ragweed (Ambrosia artemisizfolia L., AMBEL); test: as above; details: pre-emerge, 14 days after application, rating scale 0-100
# Summary of the method: as §1
# [4] = system: green foxtail (Setaria viridis, SETVI); test: as above; details: pre-emerge, 14 days after application, rating scale 0-100
# Summary of the method: as §1
# [5] = system: ivyleaf morningglory (Ipomoea hederacea, IPOHE); test: as above; details: pre-emerge, 14 days after application, rating scale 0-100
# Summary of the method: as §1
# [6] = system: johnsongrass (Sorghum halepense, SORHA); test: as above; details: pre-emerge, 14 days after application, rating scale 0-100
# Summary of the method: as §1
# [7] = system: lambsquarters (Chenopodium album, CHEAL); test: as above; details: pre-emerge, 14 days after application, rating scale 0-100
# Summary of the method: as §1
# [8] = system: large crabgrass (Digitaria sanguinalis, DIGSA); test: as above; details: pre-emerge, 14 days after application, rating scale 0-100
# Summary of the method: as §1
# [9] = system: sicklepod (Cassia obtusifolia, CASOB); test: as above; details: pre-emerge, 14 days after application, rating scale 0-100
# Summary of the method: as §1
# [10] = system: velvetleaf (Abutilon theophrasti, ABUTH); test: as above; details: pre-emerge, 14 days after application, rating scale 0-100
# Summary of the method: as §1
# [11] = system: field corn (Zea mays L., var. Dekalb 535, CORN); test: Pre-emerge test, crop safety; details: pre-emerge, 14 days after application, rating scale 0-100
# Summary of the method: (§2)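 Fourteen days after spraying, crop and weed injury was graded visually from 0, no effect, to 100, every plant dead. Test substances were dissolved in acetone and applied at 15–1000 g ai/ha with a flat-fan nozzle. Application was either pre-emergence, one day after sowing, or post-emergence at the 2–3 leaf stage.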
# [12] = system: upland rice (Oryza sp., var. Tebonnet, RICE); test: Pre-emerge test, crop safety; details: pre-emerge, 14 days after application, rating scale 0-100
# Summary of the method: as §2
# [13] = system: barnyardgrass (Echinochloa crus-galli, ECHCG); test: Post-emerge test, greenhouse herbicide activity screening; details: post-emerge, 14 days after application, rating scale 0-100
# Summary of the method: (§3)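 Compounds in acetone were track-sprayed at 15-1000 g ai/ha (187 l/ha) on sandy loam pots: pre-emerge one day after seeding, post-emerge at 2-3 leaf stage with 0.25% v/v non-ionic surfactant. Phytotoxicity was rated 14 days later on a 0 (no damage) to 100 (complete death) scale.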
# [14] = system: common ragweed (Ambrosia artemisizfolia L., AMBEL); test: as above; details: post-emerge, 14 days after application, rating scale 0-100
# Summary of the method: as §3
# [15] = system: green foxtail (Setaria viridis, SETVI); test: as above; details: post-emerge, 14 days after application, rating scale 0-100
# Summary of the method: as §3
# [16] = system: ivyleaf morningglory (Ipomoea hederacea, IPOHE); test: as above; details: post-emerge, 14 days after application, rating scale 0-100
# Summary of the method: as §3
# [17] = system: lambsquarters (Chenopodium album, CHEAL); test: as above; details: post-emerge, 14 days after application, rating scale 0-100
# Summary of the method: as §3
# [18] = system: large crabgrass (Digitaria sanguinalis, DIGSA); test: as above; details: post-emerge, 14 days after application, rating scale 0-100
# Summary of the method: as §3
# [19] = system: redroot pigweed (Amaranthus retroflexus, AMARE); test: as above; details: post-emerge, 14 days after application
# Summary of the method: as §3
# [20] = system: sicklepod (Cassia obtusifolia, CASOB); test: as above; details: post-emerge, 14 days after application, rating scale 0-100
# Summary of the method: as §3
# [21] = system: velvetleaf (Abutilon theophrasti, ABUTH); test: as above; details: post-emerge, 14 days after application, rating scale 0-100
# Summary of the method: as §3
# [22] = system: field corn (Zea mays L., var. Dekalb 535, CORN); test: Post-emerge test, crop safety; details: post-emerge, 14 days after application, rating scale 0-100
# Summary of the method: as §1
# [23] = system: upland rice (Oryza sp., var. Tebonnet, RICE); test: Post-emerge test, crop safety; details: post-emerge, 14 days after application, rating scale 0-100
# Summary of the method: as §1
smiles,measurement,setting,value
CCOC(=O)C(Cl)Cc1c(OCC)c(Cl)cc(F)c1-n1c(=O)cc(C(F)(F)F)n(C)c1=O (stereo not shown) [14-63],phytotoxicity rating AMARE,[1]; 63 g ai/ha,99
same,phytotoxicity rating AMARE,[1]; 250 g ai/ha,100
same,phytotoxicity rating ECHCG,[2]; 63 g ai/ha,0
same,phytotoxicity rating ECHCG,[2]; 250 g ai/ha,50
same,phytotoxicity rating AMBEL,[3]; 63 g ai/ha,0
same,phytotoxicity rating AMBEL,[3]; 250 g ai/ha,60
same,phytotoxicity rating SETVI,[4]; 63 g ai/ha,30
same,phytotoxicity rating SETVI,[4]; 250 g ai/ha,99
same,phytotoxicity rating IPOHE,[5]; 63 g ai/ha,0
same,phytotoxicity rating IPOHE,[5]; 250 g ai/ha,0
same,phytotoxicity rating SORHA,[6]; 63 g ai/ha,0
same,phytotoxicity rating SORHA,[6]; 250 g ai/ha,20
same,phytotoxicity rating CHEAL,[7]; 63 g ai/ha,80
same,phytotoxicity rating CHEAL,[7]; 250 g ai/ha,99
same,phytotoxicity rating DIGSA,[8]; 63 g ai/ha,70
same,phytotoxicity rating DIGSA,[8]; 250 g ai/ha,100
same,phytotoxicity rating CASOB,[9]; 63 g ai/ha,0
same,phytotoxicity rating CASOB,[9]; 250 g ai/ha,50
same,phytotoxicity rating ABUTH,[10]; 63 g ai/ha,70
same,phytotoxicity rating ABUTH,[10]; 250 g ai/ha,100
same,phytotoxicity rating CORN,[11]; 63 g ai/ha,0
same,phytotoxicity rating CORN,[11]; 250 g ai/ha,0
same,phytotoxicity rating RICE,[12]; 63 g ai/ha,0
same,phytotoxicity rating RICE,[12]; 250 g ai/ha,0
same,Post-emerge Herbicidal Activity ECHCG (phytotoxicity rating),[13]; 63 g ai/ha,100
same,Post-emerge Herbicidal Activity ECHCG (phytotoxicity rating),[13]; 250 g ai/ha,99
same,Post-emerge Herbicidal Activity AMBEL (phytotoxicity rating),[14]; 63 g ai/ha,20
same,Post-emerge Herbicidal Activity AMBEL (phytotoxicity rating),[14]; 250 g ai/ha,50
same,Post-emerge Herbicidal Activity SETVI (phytotoxicity rating),[15]; 63 g ai/ha,50
same,Post-emerge Herbicidal Activity SETVI (phytotoxicity rating),[15]; 250 g ai/ha,70
same,Post-emerge Herbicidal Activity IPOHE (phytotoxicity rating),[16]; 63 g ai/ha,70
same,Post-emerge Herbicidal Activity IPOHE (phytotoxicity rating),[16]; 250 g ai/ha,70
same,Post-emerge Herbicidal Activity CHEAL (phytotoxicity rating),[17]; 63 g ai/ha,80
same,Post-emerge Herbicidal Activity CHEAL (phytotoxicity rating),[17]; 250 g ai/ha,100
same,Post-emerge Herbicidal Activity DIGSA (phytotoxicity rating),[18]; 63 g ai/ha,40
same,Post-emerge Herbicidal Activity DIGSA (phytotoxicity rating),[18]; 250 g ai/ha,90
same,Post-emerge Herbicidal Activity AMARE (phytotoxicity rating),"[19]; 63 g ai/ha, rating scale 0-100 (0 no damage, 100 complete death)",95
same,Post-emerge Herbicidal Activity AMARE (phytotoxicity rating),"[19]; 250 g ai/ha, rating scale 0-100",100
same,Post-emerge Herbicidal Activity CASOB (phytotoxicity rating),[20]; 63 g ai/ha,95
same,Post-emerge Herbicidal Activity CASOB (phytotoxicity rating),[20]; 250 g ai/ha,100
same,Post-emerge Herbicidal Activity ABUTH (phytotoxicity rating),[21]; 63 g ai/ha,90
same,Post-emerge Herbicidal Activity ABUTH (phytotoxicity rating),[21]; 250 g ai/ha,100
same,Post-emerge Herbicidal Activity CORN (crop damage rating),[22]; 63 g ai/ha,35
same,Post-emerge Herbicidal Activity CORN (crop damage rating),[22]; 250 g ai/ha,80
same,Post-emerge Herbicidal Activity RICE (crop damage rating),[23]; 63 g ai/ha,5
same,Post-emerge Herbicidal Activity RICE (crop damage rating),[23]; 250 g ai/ha,15
